Measured values from PMC12145446, “Development of an AI model for DILI-level prediction using liver organoid brightfield images” (Communications Biology, 2025).
Several values for one entry are separate records, joined by “and”; a condition that tells them apart may be missing. Equal entries are not always repeated. Entries after “also recorded” stand apart in the source; their conditions may differ. Blank lines part the entries; values can stand above or below the molecule they belong to.

Assays:
[1] = cited from earlier work; for Label section / Severity class: DILIrank; for Label section: FDA drug label section; for DILIrank: FDA DILIrank category based on clinical data
[2] = peak serum concentration used as dosing reference; source not given; cited from earlier work
[3] = tested on: human liver organoids (HLOs); assay: ALB secretion (Human Albumin ELISA) in the DILI toxicity test on human liver organoids; format: cell-based; conditions: 10*Cmax; for ALB inhibition, significance vs 0*Cmax: liver organoids, Supplementary Fig. 1
Protocol: (§1) All experiments were performed using HLOs derived from a single donor tissue. For each assay, three technical replicates were analyzed, corresponding to three independently cultured wells seeded with organoids. For passage, the following embedding method was used: HLOs were enzymatically or mechanically fragmented (with pre-cold phosphate-buffered saline (PBS)) and reseeded in new Matrigel. Specifically, the pre-cold Matrigel/cell mixture is seeded in 24-well plates at 30 μL/well to enable the formation of dome-shaped structures. Incubation in the cell incubator (37 °C, 5% CO2) for 15 min is required for Matrigel polymerization. After solidification, 500 μL of specific medium is added and later renewed at specific intervals.
(§2) The peak serum concentration (Cmax) can intuitively reflect the actual presence level of a drug in the body’s circulatory system. […] On this basis, we selected 10*Cmax as the reference concentration, taking into account the coefficient of variation in toxicology (individual variability: tenfold). […] Each drug was tested in triplicate. Plates were dosed with the drug for 72 h in each cycle (referred to as Day 0 through Day 3). […] At the end of day 3, the supernatant from each well was collected to determine ALB secretion, and the spheroids from each well were used for the cell viability assay.
The culture supernatants were collected and stored at −80 °C until use. The supernatant was assayed with a Human Albumin ELISA Kit (PROTEINTECH, KE00076). Assays were performed according to the manufacturer’s instructions.

[4] = tested on: human liver organoids (HLOs); assay: Cellular viability (ATP, CellTiter-Glo) in the DILI toxicity test on human liver organoids; format: cell-based; conditions: 10*Cmax; for ATP inhibition, significance vs 0*Cmax: liver organoids, Supplementary Fig. 2, peer review file
Protocol: as §1, §2
CellTiter-Glo (CTG, G9681, PROMEGA) reagent and culture medium were added to each well in a 1:1 ratio. The contents were mixed for 2 min to induce cell lysis. The plate was incubated at room temperature for 10 min to stabilize the luminescent signal. Recording of luminescence was carried out with BioTek Microplate Reader Synergy H1 (Vermont, USA).

[5] = tested on: human liver organoids (HLOs); assay: Brightfield morphology of dosed human liver organoids; format: cell-based; conditions: 10*Cmax
Text: To explore the suitability of liver models with varying levels of complexity for DILI toxicity testing platforms, we established a single-type cell 3D model (HepG2 spheroid) and a multi-type cell 3D model (liver organoid). Specifically, HepG2 spheroids and HLOs were each exposed to 30 compounds with or without hepatotoxicity. The levels of ALB from the supernatant and cellular activity (ATP) from the spheres were further assessed at the end of Day 3 to validate the reliability of the system (Figs. 2b, d, f and 3b, d, f). […] The brightfield images across different time series and different z-axis orientations were collected daily to generate image data for morphological analysis (Supplementary Figs. 5 and 6).
as §2

SMILES: CC(=O)Nc1ccc(O)cc1 [Acetaminophen]
Label section [1]: Warnings and precautions

SMILES: CCc1oc2ccccc2c1C(=O)c1cc(Br)c(O)c(Br)c1 [Benzbromarone]
Label section [1]: Withdrawn
Severity class [1]: 8
DILIrank [1]: vMost-DILI-Concern
Cmax [2]: 1840 ng/mL

SMILES: COc1ccccc1Oc1c(NS(=O)(=O)c2ccc(C(C)(C)C)cc2)nc(-c2ncccn2)nc1OCCO [Bosentan]
Label section [1]: Box warning
Severity class [1]: 7
DILIrank [1]: vMost-DILI-Concern
Cmax [2]: 2286 ng/mL

SMILES: O=C1CC2(CCCC2)CC(=O)N1CCCCN1CCN(c2ncccn2)CC1 [Buspirone]
Label section [1]: Adverse reactions
Severity class [1]: 3
DILIrank [1]: Ambiguous DILI-concern
Cmax [2]: 1.92 ng/mL

Brightfield morphology changes of HLOs ([5]; Day 0 to Day 3, listed as Chlorphenamine): still grew significantly
SMILES: CN(C)CCC(c1ccc(Cl)cc1)c1ccccn1 (stereo not shown) [Chlorpheniramine]
ALB inhibition ([3]; human liver organoids, end of Day 3 (72 h), individual replicates n = 3, unit from Fig. S1 legend, listed as Chlorphenamine): 1% and 9%
Label section [1]: No match
Severity class [1]: 0
DILIrank [1]: vNo-DILI-Concern
DILI level label by DILIrank ([1]; label as worded in text and figure legends): No-DILI
Cmax [2]: 140 ng/mL
ATP inhibition ([4]; human liver organoids, end of Day 3 (72 h), individual replicates n = 3, listed as Chlorphenamine): 13% and 9% and -14%
Brightfield morphology changes of HLOs ([5]; Day 0 to Day 3): still increased in diameter and developed into a typical translucent hollow sphere with clear boundaries

SMILES: Cc1nc(Nc2ncc(C(=O)Nc3c(C)cccc3Cl)s2)cc(N2CCN(CCO)CC2)n1 [Dasatinib]
Label section [1]: Adverse reactions
Severity class [1]: 4
DILIrank [1]: vLess-DILI-Concern
Cmax [2]: 129 ng/mL

SMILES: O=C(O)Cc1ccccc1Nc1c(Cl)cccc1Cl [Diclofenac]
Label section [1]: Warnings and precautions
Severity class [1]: 8
DILIrank [1]: vMost-DILI-Concern

SMILES: C[C@H]1O[C@@H](O[C@H]2[C@@H](O)C[C@H](O[C@H]3[C@@H](O)C[C@H](O[C@H]4CC[C@@]5(C)[C@H](CC[C@@H]6[C@@H]5C[C@@H](O)[C@]5(C)[C@@H](C7=CC(=O)OC7)CC[C@]65O)C4)O[C@@H]3C)O[C@@H]2C)C[C@H](O)[C@@H]1O [Digoxin]
ALB inhibition, significance vs 0*Cmax [3]: significant
Cmax [2]: 2.21 ng/mL
ATP inhibition, significance vs 0*Cmax [4]: significant

SMILES: CN(C)CCOC(c1ccccc1)c1ccccc1 [Diphenhydramine]
Label section [1]: No match
Severity class [1]: 0

SMILES: CCN(CC)C(=O)/C(C#N)=C/c1cc(O)c(O)c([N+](=O)[O-])c1 [Entacapone]
Label section [1]: No match
Severity class [1]: 0
DILIrank [1]: vLess-DILI-Concern
Cmax [2]: 1000 ng/mL

SMILES: C#Cc1cccc(Nc2ncnc3cc(OCCOC)c(OCCOC)cc23)c1 [Erlotinib]
Label section [1]: Warnings and precautions
Severity class [1]: 8
DILIrank [1]: vMost-DILI-Concern
Cmax [2]: 1200 ng/mL

SMILES: CC(C)C(=O)Nc1ccc([N+](=O)[O-])c(C(F)(F)F)c1 [Flutamine]
Label section [1]: Box warning
Severity class [1]: 8
DILIrank [1]: vMost-DILI-Concern
Cmax [2]: 100 ng/mL

SMILES: COc1cc2ncnc(Nc3ccc(F)c(Cl)c3)c2cc1OCCCN1CCOCC1 [Gefitinib]
Cmax [2]: 200 ng/mL
Brightfield morphology changes of HLOs ([5]; Day 0 to Day 3): underwent cell death, failed to maintain their original spherical structure, and disintegrated by the end of Day 3; also recorded: started to undergo significant cell death and structural disintegration

SMILES: NNC(=O)c1ccncc1 [Isoniazid]
ALB inhibition, significance vs 0*Cmax [3]: did not show a significant difference
Label section [1]: Box warning
Severity class [1]: 8
DILIrank [1]: vMost-DILI-Concern
Cmax [2]: 10500 ng/mL
ATP inhibition, significance vs 0*Cmax [4]: did not show a significant difference

SMILES: C[C@H]1COc2c(N3CCN(C)CC3)c(F)cc3c(=O)c(C(=O)O)cn1c23 [Levofloxacin]
DILIrank [1]: vMost-DILI-Concern
Cmax [2]: 5700 ng/mL

SMILES: CCN(CC)CC(=O)Nc1c(C)cccc1C [Lidocaine]
Label section [1]: No match
Severity class [1]: 0

SMILES: CN(Cc1cnc2nc(N)nc(N)c2n1)c1ccc(C(=O)N[C@@H](CCC(=O)O)C(=O)O)cc1 [Methotrexate]
Label section [1]: Box warning
Severity class [1]: 3
DILIrank [1]: vMost-DILI-Concern
Cmax [2]: 351 ng/mL

SMILES: CCc1nn(CCCN2CCN(c3cccc(Cl)c3)CC2)c(=O)n1CCOc1ccccc1 [Nefazodone]
Label section [1]: Box warning
Severity class [1]: 8
DILIrank [1]: vMost-DILI-Concern
Cmax [2]: 434.9 ng/mL

SMILES: CS(=O)(=O)Nc1ccc([N+](=O)[O-])cc1Oc1ccccc1 [Nimesulide]
Label section [1]: Withdrawn
Severity class [1]: 8
DILIrank [1]: vMost-DILI-Concern
Cmax [2]: 6500 ng/mL

SMILES: CC(=O)O[C@H]1C(=O)[C@@]2(C)[C@H]([C@H](OC(=O)c3ccccc3)[C@]3(O)C[C@H](OC(=O)[C@H](O)[C@@H](NC(=O)c4ccccc4)c4ccccc4)C(C)=C1C3(C)C)[C@]1(OC(C)=O)CO[C@@H]1C[C@@H]2O [Paclitaxel]
Label section [1]: Adverse reactions
Severity class [1]: 4
DILIrank [1]: vLess-DILI-Concern
Cmax [2]: 600 ng/mL

SMILES: CCc1ccc(CCOc2ccc(CC3SC(=O)NC3=O)cc2)nc1 (stereo not shown) [Pioglitazone]
Label section [1]: Warnings and precautions
Severity class [1]: 3
DILIrank [1]: vLess-DILI-Concern
Cmax [2]: 1050 ng/mL

SMILES: Cc1cn([C@H]2C=C[C@@H](CO)O2)c(=O)[nH]c1=O [Stavudine]
Label section [1]: Box warning
Severity class [1]: 8
DILIrank [1]: vMost-DILI-Concern
Cmax [2]: 776.4 ng/mL

SMILES: Cc1ccc(C(=O)c2cc(O)c(O)c([N+](=O)[O-])c2)cc1 [Tolcapone]
Label section [1]: Box warning (withdrawn)
Severity class [1]: 8
DILIrank [1]: vMost-DILI-Concern
Cmax [2]: 13000 ng/mL

SMILES: Cc1c(C)c2c(c(C)c1O)CCC(C)(COc1ccc(CC3SC(=O)NC3=O)cc1)O2 (stereo not shown) [Troglitazone]
Label section [1]: Withdrawn
Severity class [1]: 8
DILIrank [1]: vMost-DILI-Concern
Cmax [2]: 2820 ng/mL

SMILES: CC[C@]1(O)C[C@@H]2CN(CCc3c([nH]c4ccccc34)[C@@](C(=O)OC)(c3cc4c(cc3OC)N(C)[C@H]3[C@@](O)(C(=O)OC)[C@H](OC(C)=O)[C@]5(CC)C=CCN6CC[C@]43[C@@H]65)C2)C1 [Vinblastine]
ALB inhibition, significance vs 0*Cmax [3]: significant
Cmax [2]: 28 ng/mL
ATP inhibition, significance vs 0*Cmax [4]: significant

SMILES: CC(c1cc2ccccc2s1)N(O)C(N)=O (stereo not shown) [Zileuton]
Label section [1]: Warnings and precautions
Severity class [1]: 5
DILIrank [1]: vMost-DILI-Concern
Cmax [2]: 3100 ng/mL
